Reference: ChEMBL document CHEMBL5244230, “Artemisinin-derived hybrids and their anticancer activity” (Eur J Med Chem, 2020)

Tested on: DLD-1
Assay: Cytotoxicity against human DLD-1 cells assessed as cell growth inhibition measured after 48 hrs by MTT assay
Assay type: functional
Settings: not given

Q: Which GI50 does the source give for C[C@H]1[C@H](n2cc(-c3ccccc3C(F)(F)F)nn2)O[C@@H]2O[C@@]3(C)CC[C@H]4[C@H](C)CC[C@@H]1[C@@]24OO3 here?
A: Its GI50 is 0.05 µM.

Q: For CCCCCc1ccc(-c2cn([C@@H]3O[C@@H]4O[C@@]5(C)CC[C@H]6[C@H](C)CC[C@@H]([C@H]3C)[C@@]46OO5)nn2)cc1, which GI50 is on record?
A: The GI50 was 0.05 µM.

Q: Which GI50 does the source give for C[C@@H]1[C@@H](n2cc(-c3cc(F)cc(F)c3)nn2)O[C@@H]2O[C@@]3(C)CC[C@H]4[C@H](C)CC[C@@H]1[C@@]24OO3 here?
A: Its GI50 is 0.03 µM.

Q: For C[C@H]1[C@@H](n2cc(-c3ccccc3)nn2)O[C@@H]2O[C@@]3(C)CC[C@H]4[C@H](C)CC[C@@H]1[C@@]24OO3, which GI50 is on record?
A: The GI50 was 0.13 µM.

Q: With C[C@H]1[C@H](n2nncc2-c2ccccc2C(F)(F)F)O[C@@H]2O[C@@]3(C)CC[C@H]4[C@H](C)CC[C@@H]1[C@@]24OO3 as the compound, how does the GI50 read?
A: Its GI50 is 0.04 µM.

Q: Which GI50 does the source give for C[C@@H]1[C@@H](n2cc(-c3cccc(Cl)c3)nn2)O[C@@H]2O[C@@]3(C)CC[C@H]4[C@H](C)CC[C@@H]1[C@@]24OO3 here?
A: The GI50 was 0.03 µM.

Q: With C[C@H]1[C@H](n2nncc2-c2cc(F)cc(F)c2)O[C@@H]2O[C@@]3(C)CC[C@H]4[C@H](C)CC[C@@H]1[C@@]24OO3 as the compound, how does the GI50 read?
A: The GI50 was 0.04 µM.

Q: For C[C@@H]1CC[C@H]2[C@@H](C)C(n3cc(-c4ccc(F)cc4)nn3)O[C@@H]3O[C@@]4(C)CC[C@@H]1[C@]32OO4 (stereo partly drawn), which GI50 is on record?
A: The GI50 was 0.05 µM.

Tested on: not listed separately
Assay: Cytotoxicity against human U87 cells assessed as cell growth inhibition measured after 48 hrs by MTT assay
Assay type: functional, U-87MG ATCC
Settings: U-87 MG

Q: With C[C@H]1[C@H](n2cc(-c3ccccc3C(F)(F)F)nn2)O[C@@H]2O[C@@]3(C)CC[C@H]4[C@H](C)CC[C@@H]1[C@@]24OO3 as the compound, how does the GI50 read?
A: Its GI50 is 0.05 µM.

Q: Which GI50 does the source give for CCCCCc1ccc(-c2cn([C@@H]3O[C@@H]4O[C@@]5(C)CC[C@H]6[C@H](C)CC[C@@H]([C@H]3C)[C@@]46OO5)nn2)cc1 here?
A: Its GI50 is 0.05 µM.

Q: Which GI50 does the source give for C[C@@H]1[C@@H](n2cc(-c3cc(F)cc(F)c3)nn2)O[C@@H]2O[C@@]3(C)CC[C@H]4[C@H](C)CC[C@@H]1[C@@]24OO3 here?
A: The GI50 was 0.03 µM.

Q: With C[C@H]1[C@@H](n2cc(-c3ccccc3)nn2)O[C@@H]2O[C@@]3(C)CC[C@H]4[C@H](C)CC[C@@H]1[C@@]24OO3 as the compound, how does the GI50 read?
A: The GI50 was 0.13 µM.

Q: Which GI50 does the source give for C[C@H]1[C@H](n2nncc2-c2ccccc2C(F)(F)F)O[C@@H]2O[C@@]3(C)CC[C@H]4[C@H](C)CC[C@@H]1[C@@]24OO3 here?
A: The GI50 was 0.04 µM.

Q: With C[C@@H]1[C@@H](n2cc(-c3cccc(Cl)c3)nn2)O[C@@H]2O[C@@]3(C)CC[C@H]4[C@H](C)CC[C@@H]1[C@@]24OO3 as the compound, how does the GI50 read?
A: Its GI50 is 0.03 µM.

Q: For C[C@H]1[C@H](n2nncc2-c2cc(F)cc(F)c2)O[C@@H]2O[C@@]3(C)CC[C@H]4[C@H](C)CC[C@@H]1[C@@]24OO3, which GI50 is on record?
A: The GI50 was 0.04 µM.

Q: With C[C@@H]1CC[C@H]2[C@@H](C)C(n3cc(-c4ccc(F)cc4)nn3)O[C@@H]3O[C@@]4(C)CC[C@@H]1[C@]32OO4 (stereo partly drawn) as the compound, how does the GI50 read?
A: The GI50 was 0.05 µM.

Tested on: HeLa
Assay: Cytotoxicity against human HeLa cells assessed as cell growth inhibition measured after 48 hrs by MTT assay
Assay type: functional
Settings: not given

Q: Which GI50 does the source give for C[C@H]1[C@H](n2cc(-c3ccccc3C(F)(F)F)nn2)O[C@@H]2O[C@@]3(C)CC[C@H]4[C@H](C)CC[C@@H]1[C@@]24OO3 here?
A: Its GI50 is 0.05 µM.

Q: For CCCCCc1ccc(-c2cn([C@@H]3O[C@@H]4O[C@@]5(C)CC[C@H]6[C@H](C)CC[C@@H]([C@H]3C)[C@@]46OO5)nn2)cc1, which GI50 is on record?
A: The GI50 was 0.05 µM.

Q: Which GI50 does the source give for C[C@@H]1[C@@H](n2cc(-c3cc(F)cc(F)c3)nn2)O[C@@H]2O[C@@]3(C)CC[C@H]4[C@H](C)CC[C@@H]1[C@@]24OO3 here?
A: Its GI50 is 0.03 µM.

Q: With C[C@H]1[C@@H](n2cc(-c3ccccc3)nn2)O[C@@H]2O[C@@]3(C)CC[C@H]4[C@H](C)CC[C@@H]1[C@@]24OO3 as the compound, how does the GI50 read?
A: Its GI50 is 0.13 µM.

Q: Which GI50 does the source give for C[C@H]1[C@H](n2nncc2-c2ccccc2C(F)(F)F)O[C@@H]2O[C@@]3(C)CC[C@H]4[C@H](C)CC[C@@H]1[C@@]24OO3 here?
A: Its GI50 is 0.04 µM.

Q: For C[C@@H]1[C@@H](n2cc(-c3cccc(Cl)c3)nn2)O[C@@H]2O[C@@]3(C)CC[C@H]4[C@H](C)CC[C@@H]1[C@@]24OO3, which GI50 is on record?
A: Its GI50 is 0.03 µM.

Q: Which GI50 does the source give for C[C@H]1[C@H](n2nncc2-c2cc(F)cc(F)c2)O[C@@H]2O[C@@]3(C)CC[C@H]4[C@H](C)CC[C@@H]1[C@@]24OO3 here?
A: The GI50 was 0.04 µM.

Q: For C[C@@H]1CC[C@H]2[C@@H](C)C(n3cc(-c4ccc(F)cc4)nn3)O[C@@H]3O[C@@]4(C)CC[C@@H]1[C@]32OO4 (stereo partly drawn), which GI50 is on record?
A: Its GI50 is 0.05 µM.

Tested on: SiHa
Assay: Cytotoxicity against human SiHa cells assessed as cell growth inhibition measured after 48 hrs by MTT assay
Assay type: functional
Settings: not given

Q: Which GI50 does the source give for C[C@H]1[C@H](n2cc(-c3ccccc3C(F)(F)F)nn2)O[C@@H]2O[C@@]3(C)CC[C@H]4[C@H](C)CC[C@@H]1[C@@]24OO3 here?
A: Its GI50 is 0.05 µM.

Q: Which GI50 does the source give for CCCCCc1ccc(-c2cn([C@@H]3O[C@@H]4O[C@@]5(C)CC[C@H]6[C@H](C)CC[C@@H]([C@H]3C)[C@@]46OO5)nn2)cc1 here?
A: Its GI50 is 0.05 µM.

Q: With C[C@@H]1[C@@H](n2cc(-c3cc(F)cc(F)c3)nn2)O[C@@H]2O[C@@]3(C)CC[C@H]4[C@H](C)CC[C@@H]1[C@@]24OO3 as the compound, how does the GI50 read?
A: The GI50 was 0.03 µM.

Q: For C[C@H]1[C@@H](n2cc(-c3ccccc3)nn2)O[C@@H]2O[C@@]3(C)CC[C@H]4[C@H](C)CC[C@@H]1[C@@]24OO3, which GI50 is on record?
A: The GI50 was 0.13 µM.

Q: With C[C@H]1[C@H](n2nncc2-c2ccccc2C(F)(F)F)O[C@@H]2O[C@@]3(C)CC[C@H]4[C@H](C)CC[C@@H]1[C@@]24OO3 as the compound, how does the GI50 read?
A: Its GI50 is 0.04 µM.

Q: For C[C@@H]1[C@@H](n2cc(-c3cccc(Cl)c3)nn2)O[C@@H]2O[C@@]3(C)CC[C@H]4[C@H](C)CC[C@@H]1[C@@]24OO3, which GI50 is on record?
A: Its GI50 is 0.03 µM.

Q: Which GI50 does the source give for C[C@H]1[C@H](n2nncc2-c2cc(F)cc(F)c2)O[C@@H]2O[C@@]3(C)CC[C@H]4[C@H](C)CC[C@@H]1[C@@]24OO3 here?
A: Its GI50 is 0.04 µM.

Q: With C[C@@H]1CC[C@H]2[C@@H](C)C(n3cc(-c4ccc(F)cc4)nn3)O[C@@H]3O[C@@]4(C)CC[C@@H]1[C@]32OO4 (stereo partly drawn) as the compound, how does the GI50 read?
A: Its GI50 is 0.05 µM.

Tested on: A 172
Assay: Cytotoxicity against human A-172 cells assessed as cell growth inhibition measured after 48 hrs by MTT assay
Assay type: functional
Settings: not given

Q: With C[C@H]1[C@H](n2cc(-c3ccccc3C(F)(F)F)nn2)O[C@@H]2O[C@@]3(C)CC[C@H]4[C@H](C)CC[C@@H]1[C@@]24OO3 as the compound, how does the GI50 read?
A: Its GI50 is 0.05 µM.

Q: With CCCCCc1ccc(-c2cn([C@@H]3O[C@@H]4O[C@@]5(C)CC[C@H]6[C@H](C)CC[C@@H]([C@H]3C)[C@@]46OO5)nn2)cc1 as the compound, how does the GI50 read?
A: The GI50 was 0.05 µM.

Q: Which GI50 does the source give for C[C@@H]1[C@@H](n2cc(-c3cc(F)cc(F)c3)nn2)O[C@@H]2O[C@@]3(C)CC[C@H]4[C@H](C)CC[C@@H]1[C@@]24OO3 here?
A: The GI50 was 0.03 µM.

Q: For C[C@H]1[C@@H](n2cc(-c3ccccc3)nn2)O[C@@H]2O[C@@]3(C)CC[C@H]4[C@H](C)CC[C@@H]1[C@@]24OO3, which GI50 is on record?
A: Its GI50 is 0.13 µM.

Q: Which GI50 does the source give for C[C@H]1[C@H](n2nncc2-c2ccccc2C(F)(F)F)O[C@@H]2O[C@@]3(C)CC[C@H]4[C@H](C)CC[C@@H]1[C@@]24OO3 here?
A: Its GI50 is 0.04 µM.

Q: Which GI50 does the source give for C[C@@H]1[C@@H](n2cc(-c3cccc(Cl)c3)nn2)O[C@@H]2O[C@@]3(C)CC[C@H]4[C@H](C)CC[C@@H]1[C@@]24OO3 here?
A: Its GI50 is 0.03 µM.

Q: Which GI50 does the source give for C[C@H]1[C@H](n2nncc2-c2cc(F)cc(F)c2)O[C@@H]2O[C@@]3(C)CC[C@H]4[C@H](C)CC[C@@H]1[C@@]24OO3 here?
A: Its GI50 is 0.04 µM.

Q: Which GI50 does the source give for C[C@@H]1CC[C@H]2[C@@H](C)C(n3cc(-c4ccc(F)cc4)nn3)O[C@@H]3O[C@@]4(C)CC[C@@H]1[C@]32OO4 (stereo partly drawn) here?
A: The GI50 was 0.05 µM.

Tested on: B16
Assay: Cytotoxicity against mouse B16 cells assessed as cell growth inhibition measured after 48 hrs by MTT assay
Assay type: functional
Settings: not given

Q: With C[C@H]1[C@H](n2cc(-c3ccccc3C(F)(F)F)nn2)O[C@@H]2O[C@@]3(C)CC[C@H]4[C@H](C)CC[C@@H]1[C@@]24OO3 as the compound, how does the GI50 read?
A: Its GI50 is 0.05 µM.

Q: For CCCCCc1ccc(-c2cn([C@@H]3O[C@@H]4O[C@@]5(C)CC[C@H]6[C@H](C)CC[C@@H]([C@H]3C)[C@@]46OO5)nn2)cc1, which GI50 is on record?
A: The GI50 was 0.05 µM.

Q: With C[C@@H]1[C@@H](n2cc(-c3cc(F)cc(F)c3)nn2)O[C@@H]2O[C@@]3(C)CC[C@H]4[C@H](C)CC[C@@H]1[C@@]24OO3 as the compound, how does the GI50 read?
A: Its GI50 is 0.03 µM.

Q: For C[C@H]1[C@@H](n2cc(-c3ccccc3)nn2)O[C@@H]2O[C@@]3(C)CC[C@H]4[C@H](C)CC[C@@H]1[C@@]24OO3, which GI50 is on record?
A: The GI50 was 0.13 µM.

Q: For C[C@H]1[C@H](n2nncc2-c2ccccc2C(F)(F)F)O[C@@H]2O[C@@]3(C)CC[C@H]4[C@H](C)CC[C@@H]1[C@@]24OO3, which GI50 is on record?
A: The GI50 was 0.04 µM.

Q: For C[C@@H]1[C@@H](n2cc(-c3cccc(Cl)c3)nn2)O[C@@H]2O[C@@]3(C)CC[C@H]4[C@H](C)CC[C@@H]1[C@@]24OO3, which GI50 is on record?
A: The GI50 was 0.03 µM.

Q: For C[C@H]1[C@H](n2nncc2-c2cc(F)cc(F)c2)O[C@@H]2O[C@@]3(C)CC[C@H]4[C@H](C)CC[C@@H]1[C@@]24OO3, which GI50 is on record?
A: Its GI50 is 0.04 µM.

Q: With C[C@@H]1CC[C@H]2[C@@H](C)C(n3cc(-c4ccc(F)cc4)nn3)O[C@@H]3O[C@@]4(C)CC[C@@H]1[C@]32OO4 (stereo partly drawn) as the compound, how does the GI50 read?
A: The GI50 was 0.05 µM.
